Data: publication PMC6458850, “CXXC5 mediates growth plate senescence and is a target for enhancement of longitudinal bone growth” (Life Science Alliance, 2019)

Legend:
tibial growth plate = experiment: Estrogen-induced growth plate senescence in Cxxc5+/+ and Cxxc5−/− mice; format: in vivo, mouse; details: E2 cypionate 70 μg/kg i.m. once a week for 3 wk
Method: Figure 2. The effects of estrogen on CXXC5 expression and the mediation of growth plate senescence. (A) Immunoblotting (upper) and quantitative analyses (mean ± SEM, n = 3) (lower) in C28/I2 cells treated with 100 nM E2 (17β-estradiol) for 0, 1, 3, 6, 24, 48, or 72 h. (B) Immunocytochemical staining (left) and quantitative analyses of the fluorescent intensity (mean ± SEM, n = 3; t test, **P < 0.005 and ***P < 0.0005) (right) in C28/I2 cells treated with 100 nM E2 for 40 h. Scale bars, 100 μm. (C–E) Tibial organ cultures (E15.5) incubated with 100 nM E2 for 6 d. Representative images at 6 d (C, left) and quantitative analyses of the growth changes (mean ± SEM, n = 5; t test, ***P < 0.0005) (C, right). Scale bar, 1 mm. H&E staining (D, left) and quantification of each zone height (mean ± SEM, n = 5; t test, *P < 0.05 and **P < 0.005) (D, right) in the growth plate. Scale bar, 200 μm. IHC analyses of β-catenin and CXXC5 (E). Scale bars, 50 μm. (F) 3-wk-old Cxxc5^+/+ and Cxxc5^−/− mice were treated with E2 cypionate (70 μg/kg) by i.m. injection once a week for 3 wk (n = 3–4). Representative images of H&E staining and IHC analyses for BrdU, β-catenin, and CXXC5 in the growth plates of proximal tibiae are shown. The area within the dashed lines indicates the growth plate zone. Black and white scale bars, 50 μm. Yellow scale bar, 20 μm. RZ, resting zone; PZ, proliferative zone; HZ, hypertrophic zone. […]

CXXC5–DVL interaction = molecular target: T1, CXXC5–DVL interaction (Homo sapiens, UniProt O14640); experiment: In vitro CXXC5–DVL binding assay (FITC-tagged PTD-DBMP on DVL PDZ domain); details: dose–response curve, n = 3
T1 sequence (O14640 251-340 limits assumed): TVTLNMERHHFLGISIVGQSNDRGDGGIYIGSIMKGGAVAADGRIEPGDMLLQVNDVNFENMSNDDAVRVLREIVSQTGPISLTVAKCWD
Method: After the addition of 10 μM FITC-tagged PTD-DBMP to each well, each compound in the chemical library or control (DMSO) was treated to the well at a final concentration of 30 μM. The fluorescence intensity was measured using a Fluorstar Optima microplate reader (BGM Lab Technologies, Ortenberg, Germany). The binding values were calculated as a percent ratio of the fluorescent intensity normalized to the DMSO-treated control.

HEK293-TOP cells = experiment: TOPFlash Wnt reporter assay; format: cell-based; details: 18 h
Method: Figure 4. Identification of functional properties of KY19382 in activating the Wnt/β-catenin pathway. (A) Chemical structure of KY19382. (B) In vitro binding assay to analyze the effect of KY19382 on CXXC5–DVL interaction (mean ± SEM, n = 3). The IC50 value was determined from the dose–response curve. (C) In vitro kinase assay to analyze the effect of KY19382 on kinase activity of GSK3β (mean ± SEM, n = 3). The IC50 value was determined from the dose–response curve. (D) Analyses of TOPFlash activity in HEK293 reporter cells grown with the indicated concentrations of KY19382 for 18 h (mean ± SEM, n = 4; t test, **P < 0.005 and ***P < 0.0005 versus DMSO-treated control). (E) Immunoblot analyses with the indicated antibodies in ATDC5 cells treated with I3O or KY19382 for 24 h. (F) Immunoblot analyses of whole cell lysates immunoprecipitated with anti-Myc in ATDC5 cells treated with 0.1 μM KY19382 for 4 h after transfection with pCMV-FLAG-DVL1 and pcDNA3.1-CXXC5-Myc. (G) Immunocytochemical staining (left) and quantitative analyses (mean ± SEM, n = 3; t test, **P < 0.005) (right) for β-catenin in ATDC5 cells treated with 0.1 μM KY19382 for 48 h. Scale bar, 100 μm.
HEK293-TOP cells were seeded into each well of a 24-well plate. The cells were treated with individual compounds at indicated concentration and cultured for 18 h. […]

## C[C@]12CC[C@@H]3c4ccc(O)cc4CC[C@H]3[C@@H]1CC[C@@H]2O [E2, 17β-estradiol]
Tibial growth plate
  structural senescence of the tibial growth plate: hardly observed

## CON=C1C(=C2C(=O)Nc3cc(Cl)c(Cl)cc32)Nc2ccccc21 [KY19382, 5,6-dichloroindirubin-3′-methoxime]
CXXC5–DVL interaction
  IC50: 0.019 µM
HEK293-TOP cells
  TOPFlash Wnt reporter activity: strong enhancement
